Read-outs that look alike come from different tables or passages of the source.
Experiments:
human and canine GABARs = assay: Voltage-clamp inhibition, summary over human and canine receptors; type: cell-based; details: tested up to 30 μM
Procedure: (§1) Defoliculated X. laevis oocytes ordered from Ecocyte Bioscience (Dortmund, Germany) were microinjected with 15–25 nl of cRNA solution (5–50 ng/μl) per oocyte using an automated injector (Roboinject; Multi Channel Systems MCS GmbH, Reutlingen, Germany) and then incubated at 18 °C. All recordings were made 1–5 days post-cRNA injection and were performed at 18 ± 4 °C. Cells were superfused with OR2 medium (NaCl 88 mM, KCl 2.5 mM, HEPES 5 mM, CaCl2•2H2O 1.8 mM, MgCl2•7H2O 1.0 mM, pH 7.4). To ensure that γ2 subunits were integrated into the heteropentamers, we injected fivefold more γ2 than the other subunit cRNAs. Diazepam is a positive allosteric modulator of GABAR only if γ2 subunits are present. Therefore, we used this method to confirm the presence of human and dog GABAA receptor containing the γ2 subunit.
(§2) Voltage-clamp measurements were performed as described by Rufener et al.. Oocytes were impaled with two electrodes filled with 3 M KCl, and their membrane potentials were maintained at − 80 mV throughout the experiment. […] Recordings were performed using an automated process equipped with standard two-electrode voltage-clamp configuration (HiClamp system; Multi Channel Systems MCS GmbH). Data were filtered at 10 Hz, captured at 100 Hz and analyzed using proprietary data acquisition and analysis software in MATLAB (Mathworks Inc., Natick, MA, USA). Additional analyses were performed using Excel (Microsoft, Redmond, WA, USA). […] Graphing the maximum inward currents against the log of agonist concentration produces typical concentration-activation and concentration-inhibition curves, which can be accurately described using individual Hill equations. The concentration-activation curves were fitted using the following equation: Y=100/1+10^H(logEC50-X) where Y is the normalized response, logEC50 is the logarithm of the concentration of agonist eliciting half-maximal current amplitude, X is the log of the dose or concentration, and H is the slope factor or Hill slope. The same equation was used for the concentration-inhibition curves but logEC50 was replaced by logIC50 (half-maximal inhibitory concentration).
(§3) The agonist and the drug were then washed off for 15 s and the oocyte was exposed again to the same drug concentration for 25 s before increasing to the next concentration.

Hsa-GABA α3β2γ2 = Hsa-GABA α3β2γ2 (Homo sapiens, UniProt P18507+P34903+P47870); assay: Two-electrode voltage-clamp inhibition of GABA current, receptor expressed in Xenopus oocytes; details: Xenopus oocytes, −80 mV, 60 s pre-exposure, co-applied with GABA 1 µM (near EC10)
Text: (§4) Complementary DNA (cDNA) encoding for the human GABAA proteins α1 (NM_001127645.2), α2 (NM_001377146.1), α3 (KJ620007.1), α4 (NM_000809.4), α5 (NM_000810.4), α6 (NM_000811.3), β2 (XM_054352312.1), β3 (M82919.1), γ2 (NM_000816.3) and δ (NM_000815.5) were ordered from Genewiz (www.genewiz.com; Leipzig, Germany); for each gene, GenBank accession numbers are provided in parentheses. When necessary, silent mutations were introduced to break NheI or XhoI internal restriction sites. The corresponding open reading frames (ORF) were cloned into the pT7-TS transcription vector (introducing X. laevis β-globin untranslated cDNA to the 5’ and 3’ ends of the gene), following a procedure described in detail in a previous publication. The same process was used to obtain cDNA encoding canine GABAA proteins α4 (XM_025435560.1), α6 (XM_022417729.1) and δ (XM_005620414.2). Gene α2 (XM_025435664.1), α3 (XM_549343.5), α5 (XM_545805.6) and β3 (XM_025437408.1) were obtained by PCR; GenBank reference accession numbers are provided in parentheses. RNA extraction, cDNA synthesis and PCR amplification were performed as described previously. Total RNA was extracted from a piece of dog brain (Beagle breed; Canis lupus familiaris) from which 1 µg of total RNA (DNase-treated) was reverse-transcribed to cDNA using a (dT)30 primer and SuperScript III Reverse Transcriptase (Invitrogen, Thermo Fisher Scientific, Waltham, MA, USA). Gene-specific primers (Additional file 1: Table S1) were designed using Primer 3 software (http://frodo.wi.mit.edu/). […] The cycling conditions were: 98 °C for 30 s; then 38 cycles of 98 °C for 10 s, 58 °C for 30 s and 72 °C for 90 s; followed by 72 °C for 5 min. The dog subunits α1 (XM_546261.5), β2 (XM_014113040.1) and γ2 (XM_546259.5) had been previously amplified and described in a study by Rufener et al..
as §1
as §2, with “equations.” for “equations. The concentration-activation curves were fitted using the following equation: Y=100/1+10^H(logEC50-X) where Y is the normalized response, logEC50 is the logarithm of the concentration of agonist eliciting half-maximal current amplitude, X is the log of the dose or concentration, and H is the slope factor or Hill slope. The same equation was used for the concentration-inhibition curves but logEC50 was replaced by logIC50 (half-maximal inhibitory concentration).”

Hsa-GABA α1β2γ2 = Hsa-GABA α1β2γ2 (Homo sapiens, UniProt P14867+P18507+P47870); assay: as above; details: Xenopus oocytes, −80 mV, 60 s pre-exposure, co-applied with GABA 1 µM (near EC10)
Text: as §4, §1
as §2, with “equations.” for “equations. The concentration-activation curves were fitted using the following equation: Y=100/1+10^H(logEC50-X) where Y is the normalized response, logEC50 is the logarithm of the concentration of agonist eliciting half-maximal current amplitude, X is the log of the dose or concentration, and H is the slope factor or Hill slope. The same equation was used for the concentration-inhibition curves but logEC50 was replaced by logIC50 (half-maximal inhibitory concentration).”

Hsa-GABA α2β3γ2 = Hsa-GABA α2β3γ2 (Homo sapiens, UniProt P18507+P28472+P47869); assay: as above; details: Xenopus oocytes, −80 mV, 60 s pre-exposure, co-applied with GABA 1 µM (near EC10)
Text: as §4, §1
as §2, with “equations.” for “equations. The concentration-activation curves were fitted using the following equation: Y=100/1+10^H(logEC50-X) where Y is the normalized response, logEC50 is the logarithm of the concentration of agonist eliciting half-maximal current amplitude, X is the log of the dose or concentration, and H is the slope factor or Hill slope. The same equation was used for the concentration-inhibition curves but logEC50 was replaced by logIC50 (half-maximal inhibitory concentration).”

Hsa-GABA α6β2γ2 = Hsa-GABA α6β2γ2 (Homo sapiens, UniProt P18507+P47870+Q16445); assay: as above
Sequence of Hsa-GABA α6β2γ2 (Q16445 20-453): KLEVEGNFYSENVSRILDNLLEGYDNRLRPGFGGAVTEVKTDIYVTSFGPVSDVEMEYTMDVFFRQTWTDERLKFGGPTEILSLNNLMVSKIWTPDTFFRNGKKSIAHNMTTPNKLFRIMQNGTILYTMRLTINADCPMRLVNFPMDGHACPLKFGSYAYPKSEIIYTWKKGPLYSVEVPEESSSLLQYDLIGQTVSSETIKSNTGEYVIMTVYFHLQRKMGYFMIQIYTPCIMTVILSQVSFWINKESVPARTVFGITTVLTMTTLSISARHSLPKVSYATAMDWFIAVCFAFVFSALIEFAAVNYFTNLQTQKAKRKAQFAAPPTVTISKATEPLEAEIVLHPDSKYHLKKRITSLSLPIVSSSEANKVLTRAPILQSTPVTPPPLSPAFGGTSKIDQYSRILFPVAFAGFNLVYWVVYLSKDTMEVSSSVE
Sequence of Hsa-GABA α6β2γ2 (P47870 26-474 isoform P47870-1 limits assumed): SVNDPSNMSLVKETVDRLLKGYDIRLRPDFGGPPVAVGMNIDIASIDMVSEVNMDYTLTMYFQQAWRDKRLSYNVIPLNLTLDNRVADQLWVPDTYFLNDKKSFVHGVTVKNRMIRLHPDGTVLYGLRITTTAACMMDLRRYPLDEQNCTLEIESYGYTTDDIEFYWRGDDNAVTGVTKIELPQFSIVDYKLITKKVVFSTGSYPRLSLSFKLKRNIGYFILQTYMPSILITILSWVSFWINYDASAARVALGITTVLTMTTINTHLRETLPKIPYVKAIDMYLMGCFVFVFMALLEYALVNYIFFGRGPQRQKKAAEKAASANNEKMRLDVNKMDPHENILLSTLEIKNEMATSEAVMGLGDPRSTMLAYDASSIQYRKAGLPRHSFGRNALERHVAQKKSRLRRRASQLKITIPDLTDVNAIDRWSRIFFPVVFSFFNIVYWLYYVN
Sequence of Hsa-GABA α6β2γ2 (P18507 40-467 isoform P18507-1 limits assumed): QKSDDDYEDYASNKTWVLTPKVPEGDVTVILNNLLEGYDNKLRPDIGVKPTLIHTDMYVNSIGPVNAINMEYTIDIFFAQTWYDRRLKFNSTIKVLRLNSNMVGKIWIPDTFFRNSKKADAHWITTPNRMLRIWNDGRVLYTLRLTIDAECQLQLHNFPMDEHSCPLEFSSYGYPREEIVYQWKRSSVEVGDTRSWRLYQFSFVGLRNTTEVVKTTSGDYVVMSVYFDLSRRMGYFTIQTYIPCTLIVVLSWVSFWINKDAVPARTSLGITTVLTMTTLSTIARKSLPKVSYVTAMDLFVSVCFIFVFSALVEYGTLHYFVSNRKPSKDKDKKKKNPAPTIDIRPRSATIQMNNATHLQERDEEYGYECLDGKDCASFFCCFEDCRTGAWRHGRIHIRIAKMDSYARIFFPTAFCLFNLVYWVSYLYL
Text: as §4, §1
as §2, with “equations.” for “equations. The concentration-activation curves were fitted using the following equation: Y=100/1+10^H(logEC50-X) where Y is the normalized response, logEC50 is the logarithm of the concentration of agonist eliciting half-maximal current amplitude, X is the log of the dose or concentration, and H is the slope factor or Hill slope. The same equation was used for the concentration-inhibition curves but logEC50 was replaced by logIC50 (half-maximal inhibitory concentration).”

Hsa-GABA α5β2γ2 = Hsa-GABA α5β2γ2 (Homo sapiens, UniProt P18507+P31644+P47870); assay: as above
Sequence of Hsa-GABA α5β2γ2 (P31644 32-462): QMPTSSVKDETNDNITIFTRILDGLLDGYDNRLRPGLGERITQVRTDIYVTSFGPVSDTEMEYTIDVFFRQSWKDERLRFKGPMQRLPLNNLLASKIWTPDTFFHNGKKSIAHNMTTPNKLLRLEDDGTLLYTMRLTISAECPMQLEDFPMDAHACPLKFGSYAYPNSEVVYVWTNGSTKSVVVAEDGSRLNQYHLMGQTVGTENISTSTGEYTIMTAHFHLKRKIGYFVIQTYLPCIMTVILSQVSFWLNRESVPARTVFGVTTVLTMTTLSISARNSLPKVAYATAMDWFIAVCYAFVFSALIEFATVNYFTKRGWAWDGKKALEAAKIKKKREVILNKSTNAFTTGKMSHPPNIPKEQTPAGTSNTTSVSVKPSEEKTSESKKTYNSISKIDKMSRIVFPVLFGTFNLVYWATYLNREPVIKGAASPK
Sequence of Hsa-GABA α5β2γ2 (P47870 26-474 isoform P47870-1 limits assumed): as the sequence (P47870 26-474 isoform P47870-1 limits assumed) above
Sequence of Hsa-GABA α5β2γ2 (P18507 40-467 isoform P18507-1 limits assumed): as the sequence (P18507 40-467 isoform P18507-1 limits assumed) above
Text: as §4, §1
as §2, with “equations.” for “equations. The concentration-activation curves were fitted using the following equation: Y=100/1+10^H(logEC50-X) where Y is the normalized response, logEC50 is the logarithm of the concentration of agonist eliciting half-maximal current amplitude, X is the log of the dose or concentration, and H is the slope factor or Hill slope. The same equation was used for the concentration-inhibition curves but logEC50 was replaced by logIC50 (half-maximal inhibitory concentration).”

Hsa-GABA α2β2γ2 = Hsa-GABA α2β2γ2 (Homo sapiens, UniProt P18507+P47869+P47870); assay: as above
Sequence of Hsa-GABA α2β2γ2 (P47869 29-451): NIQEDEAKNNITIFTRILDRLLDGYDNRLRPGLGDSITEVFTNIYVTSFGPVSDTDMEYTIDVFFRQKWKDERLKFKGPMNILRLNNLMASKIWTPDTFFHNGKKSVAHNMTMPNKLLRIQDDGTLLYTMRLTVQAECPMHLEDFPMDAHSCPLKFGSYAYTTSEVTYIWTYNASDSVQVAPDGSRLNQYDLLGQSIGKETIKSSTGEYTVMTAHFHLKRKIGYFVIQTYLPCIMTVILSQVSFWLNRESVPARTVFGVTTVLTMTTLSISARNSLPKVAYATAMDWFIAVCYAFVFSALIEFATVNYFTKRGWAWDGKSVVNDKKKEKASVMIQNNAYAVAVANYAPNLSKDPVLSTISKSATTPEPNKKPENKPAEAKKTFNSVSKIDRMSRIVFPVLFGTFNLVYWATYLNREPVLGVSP
Sequence of Hsa-GABA α2β2γ2 (P47870 26-474 isoform P47870-1 limits assumed): as the sequence (P47870 26-474 isoform P47870-1 limits assumed) above
Sequence of Hsa-GABA α2β2γ2 (P18507 40-467 isoform P18507-1 limits assumed): as the sequence (P18507 40-467 isoform P18507-1 limits assumed) above
Text: as §4, §1
as §2, with “equations.” for “equations. The concentration-activation curves were fitted using the following equation: Y=100/1+10^H(logEC50-X) where Y is the normalized response, logEC50 is the logarithm of the concentration of agonist eliciting half-maximal current amplitude, X is the log of the dose or concentration, and H is the slope factor or Hill slope. The same equation was used for the concentration-inhibition curves but logEC50 was replaced by logIC50 (half-maximal inhibitory concentration).”

[1] = design: method as in earlier work; details: mdr1 mutant mouse model; cited from earlier work
Hsa-GABARs = assay: Voltage-clamp inhibition, summary over the six human subunit combinations
Procedure: as §1, §2, §3

Clu-GABARs = assay: Voltage-clamp inhibition, summary over the five canine subunit combinations; type: cell-based, Canis lupus familiaris; details: at 30 μM
Procedure: as §1, §2, §3

Clu-GABA α2β2γ2 = Clu-GABA α2β2γ2 (Canis lupus familiaris, UniProt A0A8I3RPG5+A0A8I3S1N5+E2RSQ0); assay: Two-electrode voltage-clamp inhibition of GABA current, receptor expressed in Xenopus oocytes; type: cell-based; details: Xenopus oocytes, −80 mV, 60 s pre-exposure, co-applied with GABA 5 µM (near EC10)
Text: as §4, §1
as §2, with “equations.” for “equations. The concentration-activation curves were fitted using the following equation: Y=100/1+10^H(logEC50-X) where Y is the normalized response, logEC50 is the logarithm of the concentration of agonist eliciting half-maximal current amplitude, X is the log of the dose or concentration, and H is the slope factor or Hill slope. The same equation was used for the concentration-inhibition curves but logEC50 was replaced by logIC50 (half-maximal inhibitory concentration).”

Clu-GABA α1β2γ2 = Clu-GABA α1β2γ2 (Canis lupus familiaris, UniProt A0A2H4NNI8+A0A8I3RPG5+E2RSQ0); assay: as above; type: cell-based; details: Xenopus oocytes, −80 mV, 60 s pre-exposure, co-applied with GABA 1 µM (near EC10)
Text: as §4, §1
as §2, with “equations.” for “equations. The concentration-activation curves were fitted using the following equation: Y=100/1+10^H(logEC50-X) where Y is the normalized response, logEC50 is the logarithm of the concentration of agonist eliciting half-maximal current amplitude, X is the log of the dose or concentration, and H is the slope factor or Hill slope. The same equation was used for the concentration-inhibition curves but logEC50 was replaced by logIC50 (half-maximal inhibitory concentration).”

Clu-GABA α2β3γ2 = Clu-GABA α2β3γ2 (Canis lupus familiaris, UniProt A0A8I3NUI4+A0A8I3S1N5+E2RSQ0); assay: as above; type: cell-based; details: Xenopus oocytes, −80 mV, 60 s pre-exposure, co-applied with GABA 1 µM (near EC10)
Text: as §4, §1
as §2, with “equations.” for “equations. The concentration-activation curves were fitted using the following equation: Y=100/1+10^H(logEC50-X) where Y is the normalized response, logEC50 is the logarithm of the concentration of agonist eliciting half-maximal current amplitude, X is the log of the dose or concentration, and H is the slope factor or Hill slope. The same equation was used for the concentration-inhibition curves but logEC50 was replaced by logIC50 (half-maximal inhibitory concentration).”

Clu-GABA α5β2γ2 = Clu-GABA α5β2γ2 (Canis lupus familiaris, UniProt A0A8I3PC22+A0A8I3RPG5+E2RSQ0); assay: as above; type: cell-based; details: Xenopus oocytes, −80 mV, 60 s pre-exposure, co-applied with GABA 1 µM (near EC10)
Text: as §4, §1
as §2, with “equations.” for “equations. The concentration-activation curves were fitted using the following equation: Y=100/1+10^H(logEC50-X) where Y is the normalized response, logEC50 is the logarithm of the concentration of agonist eliciting half-maximal current amplitude, X is the log of the dose or concentration, and H is the slope factor or Hill slope. The same equation was used for the concentration-inhibition curves but logEC50 was replaced by logIC50 (half-maximal inhibitory concentration).”

Clu-GABA α3β2γ2 = Clu-GABA α3β2γ2 (Canis lupus familiaris, UniProt A0A8I3PRS3+A0A8I3RPG5+E2RSQ0); assay: as above; type: cell-based; details: Xenopus oocytes, −80 mV, 60 s pre-exposure, co-applied with GABA 0.5 µM (near EC10)
Text: as §4, §1
as §2, with “equations.” for “equations. The concentration-activation curves were fitted using the following equation: Y=100/1+10^H(logEC50-X) where Y is the normalized response, logEC50 is the logarithm of the concentration of agonist eliciting half-maximal current amplitude, X is the log of the dose or concentration, and H is the slope factor or Hill slope. The same equation was used for the concentration-inhibition curves but logEC50 was replaced by logIC50 (half-maximal inhibitory concentration).”

[2] = design: method as in PMID 33733534; details: dose of 25 mg/kg body weight, cited from earlier work
[3] = test system: human and dog GABAA receptor containing the γ2 subunit; assay: Positive modulation by diazepam to confirm γ2 incorporation; type: cell-based; details: all receptor subtypes expressed; data not shown
Procedure: as §1

[4] = Xenopus oocytes, −80 mV, 60 s pre-exposure, co-applied with GABA 0.3 µM (near EC10)

Structure (SMILES): Cc1cc(C2=NOC(c3cc(Cl)cc(Cl)c3)(C(F)(F)F)C2)ccc1C(=O)NCC(=O)NCC(F)(F)F (stereo not shown) [Fluralaner, fluralaner]
- inhibitory effect on human and canine GABARs (in words) (human and canine GABARs): partial to high inhibition
- IC50 (Hsa-GABA α3β2γ2): 4.9 µM
- IC50 (Hsa-GABA α1β2γ2): 5.7 µM
- IC50 (Hsa-GABA α2β3γ2): 5.5 µM
- IC50 (Hsa-GABA α6β2γ2; [4]): 2.2 µM
- current inhibition (Hsa-GABA α6β2γ2; at 30 μM): > 90%
- IC50 (Hsa-GABA α5β2γ2; [4]): 2.7 µM
- current inhibition (Hsa-GABA α5β2γ2; at 30 μM): > 90%
- IC50 (Hsa-GABA α2β2γ2; Xenopus oocytes, −80 mV, 60 s pre-exposure, co-applied with GABA 3 µM (near EC10)): 1.9 µM
- current inhibition (Hsa-GABA α2β2γ2; at 30 μM): > 90%
- brain penetration (in words) [1]: brain penetration of fluralaner was observed
- average GABA current inhibition (Hsa-GABARs; at 30 μM, average over Hsa-GABARs): 82%
- inhibition of human GABARs (in words) (Hsa-GABARs; tested up to 30 μM): high inhibition
- average GABA current inhibition (Clu-GABARs): 76%
- IC50 (Clu-GABA α2β2γ2): 2.2 µM
- IC50 (Clu-GABA α1β2γ2): 4.3 µM
- IC50 (Clu-GABA α2β3γ2): 13 µM
- IC50 (Clu-GABA α5β2γ2): 2.3 µM
- IC50 (Clu-GABA α3β2γ2): 9.4 µM
- maximum plasma concentration ([2]; converted from ng/ml): 6.1 µM
- maximum plasma concentration [2]: 3400 ng/mL

Structure (SMILES): CN1C(=O)CN=C(c2ccccc2)c2cc(Cl)ccc21 [diazepam]
- positive modulation [3]: > 200%

Source: article PMC12144822 (Parasites & Vectors, 2025)
